Assay results reported in patent US20100240674A1 (priority 2007, published 2010).
Structures can show the parent of a compound that is named as a salt.

Columns and labels:
cerebella of NPC mice = assay: TUNEL immunofluorescence apoptosis analysis on cerebella; settings: 50 mg/Kg daily intraperitoneally for 28 days, vs saline
[1] = tested on: cerebellar Purkinje neurons
Description: In all experiments discussed herein, “NPC mice” refers to mice deficient in the NPC1 protein or NPC1−/−. In FIG. 1, the cerebellums of 4 week old NPC mice and wild type mice are shown at a, b, g and h. The cerebellums of 6 week old NPC mice and wild type mice are shown at c, d, i and j. The cerebellums of 8 week old NPC mice and wild type mice are shown at e, f, k and l. The immunohistochemical procedures utilized were: anti-c-Abl, (K12; 1:500) and anti-p73 (H-79; 1:250) (Santa Cruz Biotech, Santa Cruz, Calif.), and anti-calbindin D-28K (1:1,000). Immunohistochemical procedures were carried out by means of histological stain on floating sections. Immunocytochemistry was performed using the avidin biotin horseradish peroxidase complex (ABC) method (Vector Laboratories, Burlingame, Calif.) and sections were mounted on gelatin pre-coated slides and air-dried, then dehydrated in graded ethanol and finally covered with Permount.
The immunohistochemical protocols used are the same as those described above relating to FIG. 1.
The following process was used for in situ apoptosis detection: the terminal deoxynucleotidyl transferase mediated deoxyuridine-biotin (dUTP) nick end labeling (TUNEL) was performed using the apoptosis detection kit purchased from Roche Molecular Biochemicals (Mannheim, Germany). The sections were first incubated in a blocking solution containing 3% H2O2 in methanol. Afterward, slices were incubated in 0.1% Triton X-100 in 0.1% sodium citrate over-night at RT to increase the permeability. After being washed twice in PBS, pH 7.4, the sections were immersed in the TUNEL reaction mixture, containing dUTP-fluorescein and terminal deoxynucleotidyl transferase (TdT) conjugated for 60 minutes at 37° C. in a dark, humid atmosphere. The process was terminated by washing the sections twice in PBS buffer. For the immunofluorescence (IF) sections slides were incubated overnight with rabbit polyclonal anti-calbindin D-28K (1:1,000; Chemicon International, Temecula, Calif.). […] Fluorescent images were captured with an Olympus BX51 microscope and analyzed with IMAGE pro-express.

NPC mice = assay: Hanging Test (locomotor activity); assay type: in vivo; settings: 50 mg/Kg daily intraperitoneally for 28 days, vs saline
Description: To test locomotor activity, the Hanging Test that has been validated for these mice was used (Voikar et al., 2002). For this test a score from 0 to 5 was assigned to the mice based on their motor capabilities. To determine the score, the animal is observed during 30 seconds, a value is assigned according to the following scale: 0, if it falls before 10 seconds; 1, if it hangs from the bar with its fore paws; 2, if it tries to climb on the bar with its hind paws; 3, if it grabs the bar with its fore paws and one or two hind paws; 4, if it grabs the bar with all four paws and its tail; and 5, if it actively escapes from the bar and reaches one of the ends of the bar.

## Cc1ccc(NC(=O)c2ccc(CN3CCN(C)CC3)cc2)cc1Nc1nccc(-c2cccnc2)n1 [imatinib mesylate, 4-(4-methylpiperazin-1-ylmethyl)-N-[4-methyl-3-((4-pyridin-3-yl)(pyrimidin-2-ylamino)phenyl]benzamide methanesulfonate]
Cerebella of NPC mice
  apoptosis in cerebella (TUNEL): decreases apoptosis
  number of TUNEL positive cells: significantly less
[1]; NPC mice, 50 mg/Kg daily intraperitoneally for 28 days, immunofluorescence
  calbindin positive areas for Purkinje neurons: significant increase
[1]; NPC mice, 50 mg/Kg daily intraperitoneally for 28 days, vs saline
  death of Purkinje neurons (calbindin immunohistochemistry): reduces the death of Purkinje neurons
[1]; mouse, in vivo, ip, 50 mg/kg
  calbindin staining: does not affect the calbindin staining
NPC mice; NPC mice
  Hanging Test score: increased the scores
NPC mice; wild type mice
  effect on locomotor activity (Hanging Test): does not affect the locomotor activity
